This is an account of results in paper PMC8999677, “Critical Assessment of a Structure-Based Screening Campaign for IDO1 Inhibitors: Tips and Pitfalls” (International Journal of Molecular Sciences, 2022).

Data set [1] concerns the target fluorescently labelled rhIDO1 (NT650-IDO1) (Homo sapiens, UniProt P14902). Briefly: Single-point MST binding assay at 250 µM. Conditions: 250 µM compound, 50 nM labelled rhIDO1; F-norm outside vehicle signal and SD.
For another data set, the system named is P1.HTR cells. Kind of data set: Cytotoxicity seen in the P1.HTR cellular assay. Conditions: 30 µM, data not shown. Type of data set: cell-based, mouse. How it is done: Accordingly, no correlation could be found between cellular activities and enzymatic binding data of tested compounds.
A cellular assay was performed to assess the functional activity of confirmed hit compounds against IDO1. Briefly, P1.HTR cells, a highly transfectable clonal variant of mouse mastocytoma P815 [59], were cultured in Iscove’s modified Dulbecco’s medium supplemented with 10% fetal calf serum (FCS), 1 mM glutamine and penicillin/streptomycin at 37 °C in a humidified 7% CO2 incubator. P1.HTR cells were transfected by electroporation with plasmid constructs coding for murine IDO1 (P1.IDO1). A stable transfectant cell line was obtained by puromycin selection. Cells at the concentration of 0.25 × 10^6 cell/mL were incubated with 30 µM of compounds for 16 h, using a culture medium containing L-Trp at a concentration of 78.4 µM and a HEPES buffer at pH 7.2.

Data set [2] concerns the target recombinant human IDO1 (rhIDO1) (Homo sapiens, UniProt P14902). Briefly: Full-point MST binding assay against labelled rhIDO1. The note with it: for BEI (binding efficiency index): BEI = pKd/MW (kDa).
In the next data set the target is T1, murine IDO1 (Mus musculus, UniProt P28776).
T1 construct: expressed in transfected cells
Kind of data set: Cellular assay of IDO1 inhibition, L-Kyn production in P1.HTR cells. Conditions: 16 h; for FC L-Kyn (fold change of L-Kyn production): 30 µM compound, P1.HTR cells stably transfected with murine IDO1, versus vehicle, mean ± SD. Type of data set: cell-based. How it is done: The functional activity of confirmed IDO1 ligands was estimated in murine mastocytoma cell line (P1.HTR) stably transfected with murine IDO1. Specifically, P1.HTR cells were cultured in presence of each compound at 30 µM concentration.
Briefly, P1.HTR cells, a highly transfectable clonal variant of mouse mastocytoma P815 [59], were cultured in Iscove’s modified Dulbecco’s medium supplemented with 10% fetal calf serum (FCS), 1 mM glutamine and penicillin/streptomycin at 37 °C in a humidified 7% CO2 incubator. P1.HTR cells were transfected by electroporation with plasmid constructs coding for murine IDO1 (P1.IDO1). A stable transfectant cell line was obtained by puromycin selection.
A cell culture incubated with an equivalent volume of DMSO (the vehicle in which compounds were solubilized) was used as a reference control. After the incubation, supernatants of cell cultures were recovered, and kynurenine concentration was detected by the HPLC method. Every cell assay was conducted in triplicate. Results were expressed as the mean ± standard deviation of the kynurenine fold change (L-Kyn FC), meaning the ratio between kynurenine concentration secreted in the supernatant of the compound-treated versus vehicle-treated cells. The detection of L-Kyn concentrations was performed by using a PerkinElmer, series 200 HPLC instrument. A Kinetex C18 column (250 × 4.6 mm, 5 μm, 100 A; Phenomenex, CA, USA), maintained at the temperature of 25 °C and a pressure of 1800 PSI, was used. […] L-Kyn was detected at 360 nm by an UV detector. The software TURBOCHROM 4 was used for evaluating the concentration of L-Kyn in samples by means of a calibration curve. The detection limit of the analysis was 0.05 μM.

A short description of data set [3]: Potentiometric logP determination (Sirius T3). The note with it: for logP: n-octanol/ISA water biphasic system, read-out: explogP. Type of data set: physicochemical. The text has this:
(§1) Confirmed IDO1 ligands were profiled for the calculation and experimental determination of their acidic constant (calcpKa, exppKa) and n-octanol/water partition coefficient (calclogP, explogP). […] Four of these compounds (19–22) were titrated with a potentiometric method to determine the relative exppKa and explogP, using a Sirius T3 instrument. The remaining two compounds (16, 17) were not experimentally analyzed because their calcpKa values were too close to the upper detection limit of the Sirius T3 instrument.
(§2) Acidic constants (pKa) and octanol/water partition coefficients (logP) of confirmed hit compounds were firstly calculated using the pKa and logP plugins of the program Marvin (Marvin v20.11, ChemAxon, Budapest, Hungary).
(§3) The experiments were set up with Sirius T3 control software (Sirius T3 v1.1.3.0, Pion Inc. Ltd., Forest Row, East Sussex, UK), specifying the volume of the stock solution to be used, molecular weight, number of expected pKa and their calculated values (calcpKa), predicted logP (calclogP), and titration mode (from pH = 2 to 12 for basic compounds, and from pH = 12 to 2 for acidic compounds). To avoid issues of poor solubility during the titration in ISA water, the pKa analyses were carried out in triplicate with different ratios of organic cosolvent methanol and water (50%, 40%, and 30% methanol). Considering the modification of water’s dielectric constant in the presence of an organic solvent, the pKa at 0% of co-solvent was obtained through the method of Yasuda–Shedlovsky (YS) extrapolation to zero [58]. The validity of the analysis was assessed with the r^2 of the YS method, and results were considered acceptable with an r^2 ≥ 0.9. Titration results were analyzed with Sirius T3 refine software (Sirius T3 v1.1.3.0, Pion Inc. Ltd., Forest Row, East Sussex, UK). Octanol/water partition coefficient (logP) was measured through a potentiometric titration in a biphasic system, using ISA water and n-octanol. Specifically, Sirius T3 control software uses three evaluation models of experimental logP, whose choice is based on the calculated logP values (calclogP < 1, “Low-logP” method; 1 < calclogP < 3, “Medium-logP” method; calclogP > 3, “High-logP” method). Accordingly, the “Medium-logP” method was selected to evaluate the experimental logP (explogP) of the selected compounds. The titration was performed in triplicate and the raw data were elaborated using Sirius T3 refine software. The quality of the analysis was evaluated by comparing the titration curve of each analysis by calculating a root mean square deviation (RMSD). All the analysis yielded RMSD values < 0.5.

The nature of data set [4]: Potentiometric pKa determination (Sirius T3). Type of data set: physicochemical. The note with it: for exppKa: Sirius T3, Yasuda-Shedlovsky extrapolation to 0% methanol, first or only value.
Source text: as §1, §2, §3

One may read the Kd as the constant that tells how readily two partners part at equilibrium.

fluorescently labelled rhIDO1 (NT650-IDO1), sequence (P14902 whole entry): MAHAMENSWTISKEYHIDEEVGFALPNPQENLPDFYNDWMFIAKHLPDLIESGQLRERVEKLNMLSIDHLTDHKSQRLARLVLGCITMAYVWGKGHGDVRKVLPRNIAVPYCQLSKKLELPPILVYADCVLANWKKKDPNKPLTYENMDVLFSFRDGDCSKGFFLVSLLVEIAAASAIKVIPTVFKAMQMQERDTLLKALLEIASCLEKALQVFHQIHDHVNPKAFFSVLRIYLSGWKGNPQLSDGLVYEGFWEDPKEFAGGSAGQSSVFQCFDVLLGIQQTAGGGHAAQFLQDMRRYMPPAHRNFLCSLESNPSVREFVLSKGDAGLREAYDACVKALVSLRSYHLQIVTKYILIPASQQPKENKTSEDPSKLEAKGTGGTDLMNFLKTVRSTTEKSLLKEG
recombinant human IDO1 (rhIDO1), sequence (P14902 whole entry): as above
T1 sequence (P28776 whole entry): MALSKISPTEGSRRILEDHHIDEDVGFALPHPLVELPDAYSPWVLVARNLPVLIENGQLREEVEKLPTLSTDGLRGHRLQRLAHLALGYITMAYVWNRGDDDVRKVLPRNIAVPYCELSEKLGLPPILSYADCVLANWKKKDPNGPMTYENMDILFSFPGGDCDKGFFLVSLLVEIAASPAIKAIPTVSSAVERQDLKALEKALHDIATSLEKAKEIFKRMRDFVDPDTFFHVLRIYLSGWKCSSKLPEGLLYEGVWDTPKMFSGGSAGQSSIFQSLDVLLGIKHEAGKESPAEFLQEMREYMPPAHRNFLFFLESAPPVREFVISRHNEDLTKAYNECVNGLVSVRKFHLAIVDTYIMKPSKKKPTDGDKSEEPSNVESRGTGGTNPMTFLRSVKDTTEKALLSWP

With `NC(=O)Cn1c(/C=C/c2ccccc2)nc2ccccc21` [VIS539], the “Single-point MST classification” value in data set [1] is “false positive hit compound”.

With `O=C1Nc2ccccc2/C1=C/C(=O)c1ccccc1` [VIS540 (16)], the “Single-point MST classification” value in data set [1] is on record as “binders”. Besides, the Cytotoxicity entry in the data set with P1.HTR cells was “cytotoxic”. In addition, in data set [2], the Kd was found to be 37.5 ± 11.5 µM and the “BEI (binding efficiency index)” value worked out at 18.

As to `CN(C(=O)Nc1c[nH]c2ccccc12)c1ccccc1` [VIS544 (17)], the “FC L-Kyn (fold change of L-Kyn production)” value at murine IDO1 came to 0.55 ± 0.02. Also, in data set [1], the “Single-point MST classification” value is “binders”. Besides, in data set [2], the Kd turned out to be 59.3 ± 22.9 µM and the “BEI (binding efficiency index)” value came to 16.

Consider `O=C(NC1CCC(F)(F)CC1)c1ccc2cc[nH]c2c1` [VIS557 (18)], for which the “Inhibition in P1.HTR cells (in words)” value at murine IDO1 (30 µM) is given as “weak inhibitor”. Further, the “Single-point MST classification” value in data set [1] was “binders”. Besides, in data set [2], the Kd amounted to 4.83 ± 0.61 µM and the “BEI (binding efficiency index)” value turned out to be 19.

For the molecule `O=C(Nc1nnc(-c2ccc(Cl)cc2)o1)C1CC1` [VIS572 (19)], the “Single-point MST classification” value in data set [1] is listed as “binders”. In addition, the logP in data set [3] was 2.1. Also, in data set [4], the exppKa is recorded as 8.1. Also, in data set [2], the Kd was determined as 51.9 ± 18.4 µM and the “BEI (binding efficiency index)” value was 16.

Regarding `O=C(/C=C/c1ccco1)c1ccc(O)cc1` [VIS574 (22)], the logP in data set [3] turned out to be 2.6. The exppKa in data set [4] is listed as 7.8. Moreover, in data set [2], the Kd came to 37 ± 16.8 µM and the “BEI (binding efficiency index)” value turned out to be 21.

Take `NC(=O)C1CCN(c2ccc3cccc(O)c3n2)CC1` [VIS580 (20)]: the “Single-point MST classification” value in data set [1] is recorded as “binders”. Moreover, the logP in data set [3] was 1.9. The exppKa in data set [4] was 5.7. In data set [2], the Kd is 80.7 ± 10.6 µM and the “BEI (binding efficiency index)” value was 15.

Consider `O=C(NCc1ccccn1)c1nn[nH]c1-c1ccc(F)cc1` [VIS597 (21)], for which the “FC L-Kyn (fold change of L-Kyn production)” value at murine IDO1 was determined as 0.56 ± 0.05. For the same molecule, in data set [1], the “Single-point MST classification” value is listed as “binders”. The logP in data set [3] is 2. Also, the exppKa in data set [4] is 3.9. The “exppKa (second value)” value in data set [4] (Sirius T3, value printed after the slash) was 6.3. Further, in data set [2], the Kd is 73.3 ± 16.2 µM and the “BEI (binding efficiency index)” value is 14.

`OC(CC1c2ccccc2-c2cncn21)C1CCCCC1` (stereo not drawn) [compound 10, NLG919 analogue, reference compound] came in with an explogP in data set [3] (n-octanol/water) of 3.2. Besides, the exppKa in data set [4] is 6.7.
